In patent US20080293727A1, “Novel sulfonamide inhibitors of aspartyl protease” (priority 1992, published 2008) one finds Ki data, which are given here for 45 compounds.

The assay concerns the target HIV-1 protease (Human immunodeficiency virus type 1 group M subtype B, UniProt P04585). Description: Inhibition constants against HIV-1 protease (method of Pennington et al.). In kind it is biochemical. To be noted: HIV-1 protease; read-out: Ki value. From the text: We measured the inhibition constants of the compounds listed in Table VII against HIV-1 protease using the above-cited method of Pennington et al.
For the compound `CC(C)CN(C[C@@H](O)[C@H](Cc1ccccc1)NC(=O)[C@H](CC(N)=O)NC(=O)c1ccc2ccccc2n1)S(=O)(=O)N(C)C` [Compound 21, N-1-((1S-2 syn)-1-Benzyl-2-hydroxy-3-(1-isobutyl-3,3-dimethylsulfonylurea)-propyl)-2-((quinoline-2-carbonyl)-amino)-succinamide], the Ki came out at 0.7 nM. Under `C=CCOC(=O)N[C@@H](Cc1ccccc1)[C@H](O)CN(CC(C)C)S(=O)(=O)c1ccc(NC(C)=O)cc1` [Compound 27] stands 8 nM. `C=C(C)CN(C[C@@H](O)[C@H](Cc1ccccc1)NC(=O)OC(C)(C)C)S(=O)(=O)c1ccc(NC(C)=O)cc1` [Compound 131]: the Ki was determined as 60 nM. Consider `CCOC(=O)N[C@@H](Cc1ccccc1)[C@H](O)CN(CC(C)C)S(=O)(=O)c1ccc(NC(C)=O)cc1` [Compound 120], for which the inhibition constant Ki came out at 11 nM. With `CC(C)CN(C[C@@H](O)[C@H](Cc1ccccc1)NC(=O)[C@@H](NC(=O)OCc1ccccn1)C(C)C)S(=O)(=O)N(C)C` [Compound 24], the Ki is 32500 nM. `C=CCOC(=O)N[C@@H](Cc1ccccc1)[C@H](O)CN(CC1CCCC1)S(=O)(=O)c1ccc(OC)cc1` [Compound 141, N-((3-allyloxycarbonylamino)-(2 syn,3S)-2-hydroxy-4-phenyl-butyl)-N-cyclopentylmethyl-4-methoxy-benzenesulfonamide]: the Ki stood at 0.1 nM. Take `COc1ccc(S(=O)(=O)N(CC2CCCC2)C[C@@H](O)[C@H](Cc2ccccc2)NC(=O)OCc2ccccc2OC)cc1` [Compound 179]: the Ki turned out to be 0.4 nM. Regarding `CC(C)CN(C[C@@H](O)[C@H](Cc1ccccc1)NC(=O)[C@@H](NC(=O)OCc1cccnc1)C(C)C)S(=O)(=O)c1cccc2nonc12` [Compound 25], the Ki amounted to 3000 nM. For the compound `CC(C)CN(C[C@@H](O)[C@H](Cc1ccccc1)NC(=O)OCc1cccnc1)S(=O)(=O)c1ccc(F)cc1` [Compound 98, 4-Fluoro-N-((2 syn,3S)-2-hydroxy-4-phenyl-3-(pyridin-3-yl-methoxycarbonylamino)-butyl)-N-isobutyl-benzenesulfonamide], the Ki stood at 0.5 nM. For the compound `CC(=O)Nc1ccc(S(=O)(=O)N(CC(C)C)C[C@@H](O)[C@H](Cc2ccccc2)NC(=O)O[C@@H]2CCOC2)cc1` [Compound 94, N-(4-(((syn)-2-Hydroxy-(S)-4-phenyl-3-((tetrahydro-furan-(R)-3-yl)-oxycarbonylamino)-butyl)-isobutyl-sulfamoyl)-phenyl)-acetamide], the Ki stood at 1.7 nM.

As for `CC(C)CN(C[C@@H](O)[C@H](Cc1ccccc1)NC(=O)O[C@H]1CCOC1)S(=O)(=O)c1ccc(Cl)c(Cl)c1` [Compound 37, 3,4-Dichloro-N-((2 syn,3S)-2-hydroxy-4-phenyl-3-((S)-tetrahydrofuran-3-yloxycarbonylamino)-butyl)-N-isobutyl-benzenesulfonamide], the Ki came out at 0.1 nM. On to `COc1ccc(S(=O)(=O)N(CC2CCCO2)CC(O)C(Cc2ccccc2)NC(=O)OC2CCOC2)cc1` (stereo not drawn) [Compound 1007], for which the inhibitory constant (Ki) came to 42 nM. Regarding `COc1ccc(S(=O)(=O)N(CC2CCCC2)C[C@@H](O)[C@H](Cc2ccccc2)NC(=O)O[C@@H]2CCN(C(=O)OC(C)(C)C)C2)cc1` [Compound 184], the inhibition constant (Ki) is 5 nM.

For the compound `CC(=O)Nc1ccc(S(=O)(=O)N(CC(C)C)CC(O)C(Cc2ccccc2)NC(=O)C(CC(N)=O)NC(=O)c2ccc3ccccc3n2)cc1` (stereo not drawn) [Compound 193], the Ki stood at 400 nM. With `NC(=O)C[C@H](NC(=O)c1ccc2ccccc2n1)C(=O)N[C@@H](Cc1ccccc1)[C@H](O)CN(Cc1ccccc1)S(=O)(=O)c1ccccc1` [Compound 1], the inhibition constant (Ki) was 4 nM.

In the case of `COc1ccc(S(=O)(=O)N(C)C[C@@H](O)[C@H](Cc2ccccc2)NC(=O)O[C@H]2CCOC2)cc1` [Compound 1005], the Ki was determined as 250 nM. Under `COc1ccc(S(=O)(=O)N(CCN2CCCCC2)C[C@@H](O)[C@H](Cc2ccccc2)NC(=O)O[C@H]2CCOC2)cc1` [Compound 1014] stands 9300 nM. On to `CC(C)CN(C[C@@H](O)[C@H](Cc1ccccc1)NC(=O)OCc1ccccc1)S(=O)(=O)c1ccc2nonc2c1` [Compound 65], for which the inhibition constant (Ki) turned out to be 0.7 nM. `O=C(N[C@@H](Cc1ccccc1)[C@H](O)CN(CC1CCCC1)S(=O)(=O)c1ccc2c(c1)CCO2)O[C@H]1CCOC1` [Compound 180]: the Ki is less than 0.1 nM.

Turning to `O=C(N[C@@H](Cc1ccccc1)[C@H](O)CN(CC1CCCC1)S(=O)(=O)c1ccc(O)cc1)O[C@H]1CCOC1` [Compound 169, N-Cyclopentylmethyl-4-hydroxy-N-((2 syn,3S)-2-hydroxy-4-phenyl-3-((S)-tetrahydrofuran-3-yloxycarbonylamino)-butyl)-benzenesulfonamide], the inhibitory constant (Ki) is less than 0.1 nM. In the case of `CC(=O)Nc1ccc(S(=O)(=O)N(CC(C)C)C[C@@H](O)[C@H](Cc2ccccc2)NC(=O)OCc2ccccc2)cc1` [Compound 61], the Ki was determined as 4 nM. Under `CC(=O)Nc1ccc(S(=O)(=O)N(CC(C)C)C[C@@H](O)[C@H](Cc2ccccc2)NC(=O)NCc2ccccc2)cc1` [Compound 33] stands 80 nM; under `COc1ccc(OC)c(S(=O)(=O)N[C@@H](Cc2ccccc2)[C@H](O)CN(CC(C)C)S(=O)(=O)c2ccc(F)c(NC(C)=O)c2)c1` [Compound 73], 140 nM; under `CC(C)CN(C[C@@H](O)[C@H](Cc1ccccc1)NC(=O)OC(C)(C)C)S(=O)(=O)c1ccccc1` [Compound 45], 6 nM.

On to `CC(=O)Nc1ccc(S(=O)(=O)N(CC(C)C)C[C@@H](O)[C@H](Cc2ccccc2)NC(=O)[C@@H]2CC(=O)NC(=O)N2)cc1` [Compound 40], for which the Ki was 1100 nM. As for `CC(=O)Nc1ccc(S(=O)(=O)N(CC(C)C)C[C@@H](O)[C@H](Cc2ccccc2)NC(=O)O[C@H]2CCOC2)cc1` [Compound 48, N-(4-(((2 syn,3S)-2-Hydroxy-4-phenyl-3-((S)-tetrahydrofuran-3-yloxycarbonylamino)-butyl)-isobutyl-sulfamoyl)-phenyl)-acetamide], the Ki stood at 1.4 nM. For the compound `CCC(C)C(NC(=O)OCc1ccccc1)C(=O)NC(Cc1ccccc1)C(O)CN(Cc1ccccc1)S(=O)(=O)Cc1ccccc1` (stereo not drawn) [Compound 186], the Ki is 140 nM.

For the compound `CCOC(=O)N[C@@H](Cc1ccccc1)[C@H](O)CN(CC1CCCC1)S(=O)(=O)c1ccc(F)cc1` [Compound 115, N-Cyclopentylmethyl-N-((3-ethoxycarbonylamino)-(2 syn,3S)-2-hydroxy-4-phenyl-butyl)-4-fluoro-benzenesulfonamide], the Ki came to 0.5 nM. In the case of `CC(C)CN(C[C@@H](O)[C@H](Cc1ccccc1)NC(=O)O[C@H]1CCOC1)S(=O)(=O)c1ccc([N+](=O)[O-])cc1` [Compound 167, N-((2 syn,3S)-2-Hydroxy-4-phenyl-3-((S)-tetrahydrofuran-3-yloxycarbonylamino)-butyl)-N-isobutyl-4-nitro-benzenesulfonamide], the Ki worked out at 0.45 nM.

Take `O=C(NC(Cc1ccccc1)C(O)CN(CC1CCCO1)S(=O)(=O)c1ccc(F)cc1)OC1CCOC1` (stereo not drawn) [Compound 132]: the inhibition constant (Ki) stood at 6 nM. Regarding `C=CCOC(=O)N[C@@H](Cc1ccccc1)[C@H](O)CN(CC(C)C)S(=O)(=O)c1ccc(Cl)c(Cl)c1` [Compound 81], the Ki is 2.3 nM.

`CC(C)CN(C[C@@H](O)[C@H](Cc1ccccc1)NC(=O)O[C@H]1CCOC1)S(=O)(=O)c1cc(Cl)c(Cl)s1` [Compound 95]: the Ki stood at 1.3 nM. `CS(=O)(=O)N(Cc1ccccc1)C[C@@H](O)[C@H](Cc1ccccc1)NC(=O)[C@H](CC(N)=O)NC(=O)c1ccc2ccccc2n1` [Compound 8]: the Ki was found to be 850 nM. `COc1ccc(S(=O)(=O)N(CC2CCCC2)C[C@@H](O)[C@H](Cc2ccccc2)NC(=O)O[C@H]2CCOC2)cc1` [Compound 140, N-cyclopentylmethyl-N-((2 syn,3S)-2-hydroxy-4-phenyl-3-((S)-tetrahydrofuran-3-yloxycarbonylamino)-butyl)-4-methoxy-benzenesulfonamide]: the Ki was less than 0.1 nM. Under `CC(C)CN(C[C@@H](O)[C@H](Cc1ccccc1)NC(=O)O[C@H]1CCOC1)S(=O)(=O)N1CCOCC1` [Compound 161] stands 20 nM. In the case of `COC(=O)N[C@@H](Cc1ccccc1)[C@H](O)CN(CC(C)C)S(=O)(=O)c1ccc(NC(C)=O)cc1` [Compound 102] it was 33 nM; in that of `CC(C)CN(C[C@@H](O)[C@H](Cc1ccccc1)NS(=O)(=O)N(C)C)S(=O)(=O)c1cccc2nonc12` [Compound 71], 470 nM. Take `C=C(C)CN(C[C@@H](O)[C@H](Cc1ccccc1)NC(=O)OC(C)(C)C)S(=O)(=O)c1ccc(F)cc1` [Compound 130]: the Ki is 14 nM. Turning to `CN(C[C@@H](O)[C@H](Cc1ccccc1)NC(=O)OC(C)(C)C)S(=O)(=O)c1ccc(Cl)c(Cl)c1` [Compound 126], the inhibition constant Ki worked out at 310 nM. In the case of `N#Cc1ccc(S(=O)(=O)N(CC2CCCC2)C[C@@H](O)[C@H](Cc2ccccc2)NC(=O)O[C@H]2CCOC2)cc1` [Compound 181], the Ki amounted to 0.3 nM. Under `O=C(N[C@@H](Cc1ccccc1)[C@H](O)CN(CC1CCCC1)S(=O)(=O)c1ccc(F)cc1)OCc1cccnc1` [Compound 111] stands 0.3 nM. In the case of `CC(=O)Nc1ccc(S(=O)(=O)N(CC(C)C)C[C@@H](O)[C@H](Cc2ccccc2)NC(=O)OCCN2CCCC2=O)cc1` [Compound 30], the Ki amounted to 61 nM. For `CC(=O)Nc1ccc(S(=O)(=O)N(CC2CCCC2)C[C@@H](O)[C@H](Cc2ccccc2)NC(=O)OCc2cccnc2)cc1` [Compound 147, N-(4-(Cyclopentylmethyl-((2 syn,3S)-2-hydroxy-4-phenyl-3-(pyridin-3-yl-methoxycarbonylamino)-butyl)-sulfamoyl)-phenyl)-acetamide], the Ki turned out to be 1.6 nM. Under `COc1ccc(S(=O)(=O)N(CC2CCCCC2)C[C@@H](O)[C@H](Cc2ccccc2)NC(=O)O[C@H]2CCOC2)cc1` [Compound 158, N-Cyclohexylmethyl-N-((2 syn,3S)-2-hydroxy-4-phenyl-3-((S)-tetrahydrofuran-3-yloxycarbonylamino)-butyl)-4-methoxy-benzenesulfonamide] stands less than 0.1 nM.

With `COc1ccc(COC(=O)N[C@@H](Cc2ccccc2)[C@H](O)CN(CC2CCCC2)S(=O)(=O)c2ccc(OC)cc2)cc1` [Compound 177], the Ki is less than 0.1 nM.
